Test results from US20120064175A1, “HSP90 Inhibitors for Treating Non-Small Cell Lung Cancer in Wild-Type EGFR and/or KRAS Patients” (Synta Pharmaceuticals Corp., priority 2010, published 2012).

Assays:
[1] = tested on: FLT3 with Hsp90; conditions: cited from earlier work
[2] = tested on: leukemia cells that express either wild type FLT3 or FLT3-ITD mutations; conditions: Yao, et al. 2003; cited from earlier work
[3] = tested on: Kasumi-1 cells; conditions: acute myeloid leukemia cell line that harbors a mutation in c-Kit; cited from earlier work
[4] = tested on: RERF-LC-AI human squamous non-small cell lung cancer cell line; experiment: Nude mouse xenograft model with RERF-LC-AI human tumor cells; assay type: in vivo; conditions: RERF-LC-AI^IVP tumors, i.p., 5 days per week, 15 doses; heading only, no data given
Procedure: The human squamous non-small cell lung cancer cell line, RERF-LC-AI (RCB0444; S. Kyoizumi, et al., Cancer. Res. 45:3274-3281, 1985), was obtained from the Riken Cell Bank (Tsukuba, Ibaraki, Japan). The cell line was cultured in growth media prepared from 50% Dulbecco's Modified Eagle Medium (high glucose), 50% RPMI Media 1640, 10% fetal bovine serum (FBS), 1% 100×L-glutamine, 1% 100× penicillin-streptomycin, 1% 100× sodium pyruvate and 1% 100×MEM non-essential amino acids. FBS was obtained from American Type Culture Collection (Manassas, Va., USA) and all other reagents were obtained from Invitrogen Corp. (Carlsbad, Calif., USA). […]
The growth media was replaced every 2-3 days until the flask became 90% confluent, typically in 5-7 days. […] The supernatant was aspirated and the cell pellet was resuspended in 10 ml of growth media and the cell number determined using a hemocytometer. […]
Seven to eight week old, female Crl:CD-1-nuBR (nude) mice were obtained from Charles River Laboratories (Wilmington, Mass., USA) Animals were housed 4-5/cage in micro-isolators, with a 12 hr/12 hr light/dark cycle, acclimated for at least 1 week prior to use and fed normal laboratory chow ad libitum. […] Tumor volumes (V) were calculated by caliper measurement of the width (W), length (L) and thickness (T) of tumors using the following formula: V=0.5236×(L×W×T). […]

Structure (SMILES)	Effect on the association of FLT3 with Hsp90 [1]	Growth of leukemia cells [2]	Apoptosis [3]	Anti-tumor activity against human tumor cells in a nude mouse xenograft model [4]
C=CCNC1=C2C[C@@H](C)C[C@H](OC)[C@H](O)[C@@H](C)/C=C(\C)[C@H](OC(N)=O)[C@@H](OC)/C=C\C=C(/C)C(=O)NC(=CC1=O)C2=O [Compound 17AAG, 17-allylamino-17-demethoxygeldanamycin]	disrupt the association of FLT3 with Hsp90	inhibited	induce apoptosis	
CCc1cc(-c2nnc(S)n2-c2ccc(O)c3c2ccn3C(C)C)c(O)cc1O [Compound 48, 3-(2,4-DIHYDROXY-5-ETHYL- PHENYL)-4-(1-ISOPROPYL-7- HYDROXY-INDOL-4-YL)-5- MERCAPTO-[1,2,4] TRIAZOLE]				Displays Anti-tumor Activity
